US9970929B2, “Voriconazole immunoassays” (ARK Diagnostics, Inc., priority 2013, dated 2018)
One block for each compound: values may come before it.

Columns and labels:
antibody Ab15461(P3) = test: homogeneous enzyme immunoassay for voriconazole (conjugate VOR-8 G6PDH, HITACHI 917), calibration and crossreactivity; format: binding, rabbit; conditions: for cross reaction with antibody Ab15461(P3), in words: summary of Tables 2 and 3
From the text: Antibodies obtained using any of the disclosed techniques are screened or purified not only for their ability to react with voriconazole, but for a low cross-reactivity with potential interfering substances. “Cross-reactivity” may be determined in a quantitative immunoassay by establishing a standard curve using known dilutions of the target analyte, voriconazole. The standard curve is then used to calculate the apparent concentration of the interfering substance present in various known amounts in samples assayed under similar condition. The cross-reactivity can be calculated as the apparent concentration divided by the actual concentration multiplied by 100. A certain immunoassay for determining cross-reactivity is a homogeneous enzyme immunoassay using a wild type G6PDH as described in U.S. Pat. No. 3,817,837 or mutant G6PDH engineered to contain a cysteine per subunit as described in U.S. Pat. Nos. 6,033,890, 6,090,567 and 6,455,288. Furthermore, the cross-reactivity can be determined in the same type of immunoassay in which the antibody will ultimately be used.
Rabbit polyclonal antibody Ab15461(P3) was used to measure a substantial change in enzyme activity, generate a calibration curve, and evaluate assay precision, accuracy and specificity. The antibody was added into the antibody diluent to prepare the antibody reagent. The antibody reagent consisted of antibody as prepared above, buffer, stabilizers, preservatives, and the substrates for the enzyme conjugate nicotinamide adenine dinucleotide (NAD^+) and glucose-6-phosphate. Enzyme conjugate including compound VOR-8 G6PDH was added into the conjugate diluent to prepare the enzyme conjugate reagent. The enzyme conjugate reagent included the conjugate, buffer, stabilizers and preservatives. Enzyme conjugate VOR-8 G6PDH was used with rabbit polyclonal antibody Ab15461(P3) in examples below. This technique is generally applicable to produce polyclonal antibodies to voriconazole derivatives and assess their utility.
The voriconazole antibodies and enzyme conjugates may be used in a homogeneous assay format to detect voriconazole samples. An instrument useful to set up the assay is Hitachi 917 Analyzer (Roche). Voriconazole containing sample is incubated with antibody reagent followed by the addition of the enzyme conjugate reagent. The enzyme conjugate activity decreases upon binding to the antibody. The enzyme conjugate, which is not bound to the antibody, catalyzes the oxidation of glucose 6-phosphate (G6P). The oxidation of G6P is coupled with the reduction of NAD^+ to NADH, which can be measured at 340 nm. The change in the absorbance at 340 nm can be measured spectrophotometrically. The voriconazole concentration in a sample can be measured in terms of G6PDH activity. The increase in the rate at 340 nm is due to the formation of NADH and is proportional to the enzyme conjugate activity. An assay curve is generated using voriconazole added into serum negative for voriconazole. The assay rate increases with increasing the concentration of free drug in the sample.
Voriconazole was dissolved in methanol to give a stock solution of 1000 μg/mL. Pooled human serum was aliquoted in 10 mL portions. Voriconazole stock solution was added to the aliquots of human serum in preparing a series of known concentrations of voriconazole calibrators ranging from 0 to 16 μg/mL. The assay was performed using Enzyme Conjugate Reagent NB051:79 containing conjugate VOR-8 G6PDH and Antibody Reagent NB051:79 containing antibody Ab15461(P3). Calibration curves were generated on the HITACHI 917 automated clinical chemistry analyzer, as described in Example 10 by measuring each level in duplicate.
The major metabolic pathway of voriconazole is an enzymatic oxidation of voriconazole. […] The voriconazole metabolite, N-oxide voriconazole was tested in the immunoassay for potential cross reactivity. […]

antifungal activity = conditions: in vitro, versus voriconazole; cited from earlier work
[1] = antifungal triazole 20 μg/mL added to voriconazole 10 μg/mL in human serum

Cross-reactivity (%) (antibody Ab15461(P3); [1]): 2.7% | cross reaction with antibody Ab15461(P3), in words (antibody Ab15461(P3)): did not significantly crossreact
SMILES: OC(Cn1cncn1)(Cn1cncn1)c1ccc(F)cc1F [Fluconazole]

Reaction Rate (mA/min) Average of Duplicates (antibody Ab15461(P3); voriconazole 1.0 μg/mL calibrator in pooled human serum): 327.2 mA/min | Reaction Rate (mA/min) Average of Duplicates (antibody Ab15461(P3); voriconazole 2.0 μg/mL calibrator in pooled human serum): 337.4 mA/min | Reaction Rate (mA/min) Average of Duplicates (antibody Ab15461(P3); voriconazole 4.0 μg/mL calibrator in pooled human serum): 349.6 mA/min | Reaction Rate (mA/min) Average of Duplicates (antibody Ab15461(P3); voriconazole 8.0 μg/mL calibrator in pooled human serum): 362.4 mA/min | Reaction Rate (mA/min) Average of Duplicates (antibody Ab15461(P3); voriconazole 16.0 μg/mL calibrator in pooled human serum): 380.4 mA/min
SMILES: C[C@@H](c1ncncc1F)[C@](O)(Cn1cncn1)c1ccc(F)cc1F [Voriconazole, (2R,3S)-2-(2,4-difluorophenyl)-3-(5-fluoro-4-pyrimidinyl)-1-(1H-1,2,4-triazol-1-yl)-2-butanol]

Continued, compound first:

SMILES: CCC(C)n1ncn(-c2ccc(N3CCN(c4ccc(OCC5COC(Cn6cncn6)(c6ccc(Cl)cc6Cl)O5)cc4)CC3)cc2)c1=O (stereo not drawn) [Itrconazole, Itraconazole]
Cross-reactivity (%) (antibody Ab15461(P3); [1]): 1.2% | cross reaction with antibody Ab15461(P3), in words (antibody Ab15461(P3)): did not significantly crossreact

SMILES: C[C@@H](c1nc[n+]([O-])cc1F)[C@](O)(Cn1cncn1)c1ccc(F)cc1F [Vor-N-Oxide, 4-((2S,3R)-3-(2,4-difluorophenyl)-3-hydroxy-4-(1H-1,2,4-triazol-1-yl)butan-2-yl)-5-fluoropyrimidine 1-oxide]
antifungal potency, fold less potent than the parent drug (antifungal activity): 100 fold | Cross-reactivity (%) (antibody Ab15461(P3); Vor-N-Oxide 5 μg/mL added to voriconazole 10 μg/mL in human serum, 100 × (mean Test − mean Control) ÷ conc. tested): 6.7% | Cross-reactivity (%) (antibody Ab15461(P3); Vor-N-Oxide 15 μg/mL added to voriconazole 10 μg/mL in human serum): 6.7% | cross reaction with antibody Ab15461(P3), in words (antibody Ab15461(P3)): does not cross react significantly

SMILES: CC[C@@H]([C@H](C)O)n1ncn(-c2ccc(N3CCN(c4ccc(OC[C@@H]5CO[C@@](Cn6cncn6)(c6ccc(F)cc6F)C5)cc4)CC3)cc2)c1=O [Posaconazole]
Cross-reactivity (%) (antibody Ab15461(P3); [1]): −2.5% | cross reaction with antibody Ab15461(P3), in words (antibody Ab15461(P3)): did not significantly crossreact
